pIC50: −log10 of the molar value. Several values for one entry are separate records, joined by “and”; a condition that tells them apart may be missing. Equal entries are not always repeated. Where two headings read alike, the source gives them in different places.
Legend:
ABL1 = ABL1 (Homo sapiens, UniProt P00519); assay: SelectScreen kinase profiling; assay type: biochemical; details: average of duplicate
ERBB2 (HER2) = ERBB2 (HER2) (Homo sapiens, UniProt P04626); assay: SelectScreen kinase profiling; assay type: biochemical; details: average of duplicate
FYN = FYN (Homo sapiens, UniProt P06241); assay: SelectScreen kinase profiling; assay type: biochemical; details: average of duplicate
KIT = KIT (Homo sapiens, UniProt P10721); assay: SelectScreen kinase profiling; assay type: biochemical; details: average of duplicate
LCK = LCK (Homo sapiens, UniProt P06239); assay: SelectScreen kinase profiling; assay type: biochemical; details: average of duplicate
LYN B = LYN B (Homo sapiens, UniProt P07948); assay: SelectScreen kinase profiling; assay type: biochemical; details: average of duplicate
PTK6 (Brk) = PTK6 (Brk) (Homo sapiens, UniProt Q13882); assay: SelectScreen kinase profiling; assay type: biochemical; details: average of duplicate
SRMS (Srm) = SRMS (Srm) (Homo sapiens, UniProt Q9H3Y6); assay: SelectScreen kinase profiling; assay type: biochemical; details: average of duplicate
EGFR (ErbB1) d746-750 = EGFR (ErbB1) d746-750 (Homo sapiens, UniProt P00533, DEL746-750); assay: SelectScreen kinase profiling; assay type: biochemical; details: average of duplicate
MAP2K5 (MEK5) = MAP2K5 (MEK5) (Homo sapiens, UniProt Q13163); assay: SelectScreen kinase profiling; assay type: biochemical; details: average of duplicate
TEC = TEC (Homo sapiens, UniProt P42680); assay: SelectScreen kinase profiling; assay type: biochemical; details: average of duplicate
[1] = tested on: ibrutinib’s top 50 targets; assay: Single-point kinase profiling, count of kinases inhibited; assay type: biochemical; details: 1 μM, of 50 kinases
BMX [2] = target: T1, BMX (Homo sapiens, UniProt P51813); assay: SelectScreen kinase profiling / Z′-Lyte kinase assay
T1 sequence (P51813 1-675): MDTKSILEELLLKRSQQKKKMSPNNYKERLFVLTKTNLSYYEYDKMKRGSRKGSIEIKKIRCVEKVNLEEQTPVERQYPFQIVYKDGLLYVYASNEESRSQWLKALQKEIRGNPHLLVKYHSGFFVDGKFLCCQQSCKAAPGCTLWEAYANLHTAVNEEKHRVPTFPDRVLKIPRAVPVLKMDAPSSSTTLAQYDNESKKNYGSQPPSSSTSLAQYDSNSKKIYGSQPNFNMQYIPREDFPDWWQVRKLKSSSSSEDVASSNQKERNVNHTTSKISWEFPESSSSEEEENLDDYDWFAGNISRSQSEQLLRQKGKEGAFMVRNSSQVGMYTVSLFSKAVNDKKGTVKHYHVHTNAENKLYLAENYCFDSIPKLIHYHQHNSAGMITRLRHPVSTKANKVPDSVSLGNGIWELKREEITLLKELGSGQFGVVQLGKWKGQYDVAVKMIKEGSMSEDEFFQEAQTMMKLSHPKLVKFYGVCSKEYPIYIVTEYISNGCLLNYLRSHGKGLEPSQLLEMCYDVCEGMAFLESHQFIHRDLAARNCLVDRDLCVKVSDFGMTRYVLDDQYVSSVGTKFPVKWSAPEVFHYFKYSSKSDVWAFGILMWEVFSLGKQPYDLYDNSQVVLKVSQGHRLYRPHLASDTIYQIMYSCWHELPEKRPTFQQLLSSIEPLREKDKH

HCK = HCK (Homo sapiens, UniProt P08631); assay: as above
BLK = BLK (Homo sapiens, UniProt P51451); assay: AssayQuant kinact/Ki profiling, PhosphoSens CSox-based kinetic assay; assay type: biochemical; design: purchased ThermoFisher / Life Technologies SelectScreen PV3683; details: for kinact/KI / BLK kinact/Ki: 2.5 nM enzyme, 1000 µM ATP, two step fit; for kinact: fitted value, two step
BMX [3] = target: T1, BMX; assay: as above; assay type: biochemical; design: purchased ThermoFisher / Life Technologies SelectScreen PV3371; details: for kinact/KI / BMX kinact/Ki: 5.0 nM enzyme, 1000 µM ATP, two step fit; for kinact: fitted value, two step

Sequence of HCK (P08631 whole entry): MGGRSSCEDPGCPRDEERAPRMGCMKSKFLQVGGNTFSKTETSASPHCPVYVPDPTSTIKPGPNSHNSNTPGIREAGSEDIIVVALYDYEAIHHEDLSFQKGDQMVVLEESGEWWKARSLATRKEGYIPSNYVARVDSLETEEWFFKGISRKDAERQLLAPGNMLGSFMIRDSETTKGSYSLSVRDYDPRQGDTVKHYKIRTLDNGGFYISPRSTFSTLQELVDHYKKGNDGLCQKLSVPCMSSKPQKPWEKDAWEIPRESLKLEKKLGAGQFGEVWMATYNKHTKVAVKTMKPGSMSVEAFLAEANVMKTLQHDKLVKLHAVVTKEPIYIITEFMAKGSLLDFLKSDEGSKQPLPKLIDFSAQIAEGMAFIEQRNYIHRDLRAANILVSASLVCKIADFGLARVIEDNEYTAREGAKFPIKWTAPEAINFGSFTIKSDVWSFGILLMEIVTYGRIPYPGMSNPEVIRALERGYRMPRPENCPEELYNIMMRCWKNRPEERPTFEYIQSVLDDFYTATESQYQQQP
Sequence of BLK (P51451 whole entry): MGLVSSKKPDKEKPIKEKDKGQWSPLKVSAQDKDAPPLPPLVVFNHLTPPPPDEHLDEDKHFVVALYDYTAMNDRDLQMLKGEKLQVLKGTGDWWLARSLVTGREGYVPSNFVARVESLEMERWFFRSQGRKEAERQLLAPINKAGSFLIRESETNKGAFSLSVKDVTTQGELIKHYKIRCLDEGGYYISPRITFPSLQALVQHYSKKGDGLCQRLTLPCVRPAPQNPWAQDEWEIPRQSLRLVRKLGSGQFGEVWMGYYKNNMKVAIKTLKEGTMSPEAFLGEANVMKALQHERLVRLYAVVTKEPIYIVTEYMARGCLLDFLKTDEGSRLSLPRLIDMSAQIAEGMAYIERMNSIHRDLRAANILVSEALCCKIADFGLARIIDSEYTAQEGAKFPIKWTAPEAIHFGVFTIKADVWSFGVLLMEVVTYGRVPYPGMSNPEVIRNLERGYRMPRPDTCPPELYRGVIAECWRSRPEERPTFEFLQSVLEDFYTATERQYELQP
Sequence of TEC (P42680 whole entry): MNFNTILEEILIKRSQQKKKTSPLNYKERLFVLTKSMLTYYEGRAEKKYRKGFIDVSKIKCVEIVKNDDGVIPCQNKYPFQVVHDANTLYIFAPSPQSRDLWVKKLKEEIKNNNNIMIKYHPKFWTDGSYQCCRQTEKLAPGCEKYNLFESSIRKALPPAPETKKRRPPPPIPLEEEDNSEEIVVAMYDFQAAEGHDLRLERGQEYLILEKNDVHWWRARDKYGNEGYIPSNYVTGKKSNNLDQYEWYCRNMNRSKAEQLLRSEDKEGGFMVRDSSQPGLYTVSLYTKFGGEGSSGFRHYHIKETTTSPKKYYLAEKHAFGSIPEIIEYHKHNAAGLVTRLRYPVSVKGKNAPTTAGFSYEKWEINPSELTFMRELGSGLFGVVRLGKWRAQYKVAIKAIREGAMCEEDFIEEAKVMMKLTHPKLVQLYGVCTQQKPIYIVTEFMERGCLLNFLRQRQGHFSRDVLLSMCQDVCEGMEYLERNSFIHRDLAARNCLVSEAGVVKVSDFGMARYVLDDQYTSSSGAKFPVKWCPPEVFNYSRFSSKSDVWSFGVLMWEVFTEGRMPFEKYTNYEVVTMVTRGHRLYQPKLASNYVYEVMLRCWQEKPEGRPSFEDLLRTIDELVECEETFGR
Sequence of PTK6 (Brk) (Q13882 whole entry): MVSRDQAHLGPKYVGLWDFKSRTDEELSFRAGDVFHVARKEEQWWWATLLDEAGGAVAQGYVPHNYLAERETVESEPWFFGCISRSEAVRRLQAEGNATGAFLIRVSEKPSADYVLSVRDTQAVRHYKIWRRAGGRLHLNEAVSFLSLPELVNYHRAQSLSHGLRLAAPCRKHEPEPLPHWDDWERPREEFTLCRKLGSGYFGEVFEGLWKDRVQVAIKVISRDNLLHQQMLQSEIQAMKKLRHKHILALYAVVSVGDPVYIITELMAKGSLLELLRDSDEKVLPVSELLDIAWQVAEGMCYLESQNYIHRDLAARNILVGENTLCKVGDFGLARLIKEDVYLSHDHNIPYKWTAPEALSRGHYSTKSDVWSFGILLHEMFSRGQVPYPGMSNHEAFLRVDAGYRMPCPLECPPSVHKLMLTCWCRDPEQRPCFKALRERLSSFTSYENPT
Sequence of ERBB2 (HER2) (P04626 23-1255): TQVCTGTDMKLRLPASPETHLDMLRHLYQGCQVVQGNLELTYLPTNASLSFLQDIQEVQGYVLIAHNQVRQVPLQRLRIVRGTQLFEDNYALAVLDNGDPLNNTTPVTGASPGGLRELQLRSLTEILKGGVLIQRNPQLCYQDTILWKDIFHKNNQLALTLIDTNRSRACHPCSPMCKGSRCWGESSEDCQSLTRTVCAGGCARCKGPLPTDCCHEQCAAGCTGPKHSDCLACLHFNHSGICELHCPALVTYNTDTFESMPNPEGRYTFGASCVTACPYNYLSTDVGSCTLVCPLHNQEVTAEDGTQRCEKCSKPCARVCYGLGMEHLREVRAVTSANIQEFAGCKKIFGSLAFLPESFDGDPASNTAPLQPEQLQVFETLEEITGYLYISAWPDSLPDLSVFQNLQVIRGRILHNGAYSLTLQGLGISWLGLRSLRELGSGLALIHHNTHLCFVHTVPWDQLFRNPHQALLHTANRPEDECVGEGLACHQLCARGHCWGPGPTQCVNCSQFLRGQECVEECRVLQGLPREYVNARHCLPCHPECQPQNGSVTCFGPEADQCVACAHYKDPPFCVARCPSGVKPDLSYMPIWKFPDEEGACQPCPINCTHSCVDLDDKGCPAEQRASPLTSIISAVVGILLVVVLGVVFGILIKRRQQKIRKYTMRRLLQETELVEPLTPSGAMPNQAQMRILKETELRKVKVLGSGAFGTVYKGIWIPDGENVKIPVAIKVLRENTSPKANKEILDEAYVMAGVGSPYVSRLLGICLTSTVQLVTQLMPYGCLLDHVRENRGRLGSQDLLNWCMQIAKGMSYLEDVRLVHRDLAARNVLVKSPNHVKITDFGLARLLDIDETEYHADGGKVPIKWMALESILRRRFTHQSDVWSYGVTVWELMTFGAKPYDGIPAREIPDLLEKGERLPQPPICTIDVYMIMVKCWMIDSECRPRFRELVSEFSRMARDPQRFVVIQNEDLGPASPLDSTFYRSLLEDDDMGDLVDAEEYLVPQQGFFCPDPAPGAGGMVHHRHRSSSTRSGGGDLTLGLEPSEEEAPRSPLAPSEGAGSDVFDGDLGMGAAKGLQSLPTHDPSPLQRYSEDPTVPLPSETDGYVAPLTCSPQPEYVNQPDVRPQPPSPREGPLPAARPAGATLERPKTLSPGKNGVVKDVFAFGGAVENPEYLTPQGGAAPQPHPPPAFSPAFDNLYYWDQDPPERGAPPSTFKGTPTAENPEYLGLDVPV
Sequence of MAP2K5 (MEK5) (Q13163 whole entry): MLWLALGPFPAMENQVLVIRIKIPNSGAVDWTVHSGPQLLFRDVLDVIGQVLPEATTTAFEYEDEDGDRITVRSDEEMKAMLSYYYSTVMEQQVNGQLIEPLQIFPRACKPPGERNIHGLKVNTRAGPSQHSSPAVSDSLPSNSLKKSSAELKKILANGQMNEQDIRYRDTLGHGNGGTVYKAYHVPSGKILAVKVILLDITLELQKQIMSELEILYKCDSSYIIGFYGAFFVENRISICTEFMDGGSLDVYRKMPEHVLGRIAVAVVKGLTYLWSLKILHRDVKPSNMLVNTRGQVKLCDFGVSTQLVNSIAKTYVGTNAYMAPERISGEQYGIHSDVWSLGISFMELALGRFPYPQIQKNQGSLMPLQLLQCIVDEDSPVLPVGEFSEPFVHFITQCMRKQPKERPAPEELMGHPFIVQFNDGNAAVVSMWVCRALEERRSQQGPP
Sequence of KIT (P10721 26-976): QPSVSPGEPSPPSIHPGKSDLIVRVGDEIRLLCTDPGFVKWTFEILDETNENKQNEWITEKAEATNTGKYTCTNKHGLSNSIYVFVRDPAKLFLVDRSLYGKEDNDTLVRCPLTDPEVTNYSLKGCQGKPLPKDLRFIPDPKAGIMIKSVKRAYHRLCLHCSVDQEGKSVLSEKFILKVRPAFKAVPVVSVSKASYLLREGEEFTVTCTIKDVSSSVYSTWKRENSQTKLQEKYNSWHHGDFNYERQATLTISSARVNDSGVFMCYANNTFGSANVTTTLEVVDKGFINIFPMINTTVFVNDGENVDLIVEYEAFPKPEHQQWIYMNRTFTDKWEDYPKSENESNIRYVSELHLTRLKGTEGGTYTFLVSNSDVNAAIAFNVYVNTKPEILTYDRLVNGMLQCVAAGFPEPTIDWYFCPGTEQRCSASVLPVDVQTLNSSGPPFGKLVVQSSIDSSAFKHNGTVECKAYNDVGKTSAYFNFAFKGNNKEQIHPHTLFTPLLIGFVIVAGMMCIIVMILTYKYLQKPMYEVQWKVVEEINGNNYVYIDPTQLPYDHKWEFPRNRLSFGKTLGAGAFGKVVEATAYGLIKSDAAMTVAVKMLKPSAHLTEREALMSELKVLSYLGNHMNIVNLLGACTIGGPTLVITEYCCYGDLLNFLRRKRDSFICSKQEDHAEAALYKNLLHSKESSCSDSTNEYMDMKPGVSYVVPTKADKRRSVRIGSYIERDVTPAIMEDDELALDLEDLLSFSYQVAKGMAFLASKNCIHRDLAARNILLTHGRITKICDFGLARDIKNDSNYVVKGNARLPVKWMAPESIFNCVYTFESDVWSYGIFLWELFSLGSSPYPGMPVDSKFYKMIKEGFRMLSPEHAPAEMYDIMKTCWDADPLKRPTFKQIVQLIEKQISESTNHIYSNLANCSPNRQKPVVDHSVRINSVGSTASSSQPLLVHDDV

Compound: C=CC(=O)N1CCCC(n2nc(-c3c(C)cc(Oc4ccccc4)cc3C)c3c(N)ncnc32)C1 (stereo in doubt) [Compound 3]
- inhibition at 1 µM (ABL1): 0%
- inhibition at 1 µM (ERBB2 (HER2)): 2%
- inhibition at 1 µM (FYN): 19%
- inhibition at 1 µM (KIT): 1%
- inhibition at 1 µM (LCK): 74%
- inhibition at 1 µM (LYN B): 28%
- inhibition at 1 µM (PTK6 (Brk)): 69%
- inhibition at 1 µM (SRMS (Srm)): 22%
- inhibition at 1 µM (EGFR (ErbB1) d746-750): 23%
- inhibition at 1 µM (MAP2K5 (MEK5)): 10%
- inhibition at 1 µM (TEC): 91%
- number of kinases inhibited to 10% of control [1]: 6
- number of kinases inhibited to 50% of control [1]: 9
- inhibition at 1 µM (BMX [2]): 94%
- pIC50 (BMX [2]; BMX IC50, Z′-Lyte, [ATP] Km app, 1 h incubation, duplicate): 8.24 and 8.25
- Hillslope (BMX [2]; BMX IC50 curve): 1.56
- inhibition at 0.000495 µM (BMX [2]; read-out: % Inhibition Point 1): 6%
- inhibition at 0.00152 µM (BMX [2]; read-out: % Inhibition Point 1): 16%
- inhibition at 0.00457 µM (BMX [2]; read-out: % Inhibition Point 1): 48%
- inhibition at 0.0137 µM (BMX [2]; read-out: % Inhibition Point 1): 78%
- inhibition at 0.0412 µM (BMX [2]; read-out: % Inhibition Point 1): 94%
- inhibition at 0.123 µM (BMX [2]; read-out: % Inhibition Point 1): 102%
- inhibition at 0.37 µM (BMX [2]; read-out: % Inhibition Point 1): 101%
- inhibition at 1.11 µM (BMX [2]; read-out: % Inhibition Point 1): 98%
- inhibition at 3.33 µM (BMX [2]; read-out: % Inhibition Point 1): 99%
- inhibition at 10 µM (BMX [2]; read-out: % Inhibition Point 1): 98%
- inhibition at 0.000495 µM (BMX [2]; read-out: % Inhibition Point 2): 10%
- inhibition at 0.00152 µM (BMX [2]; read-out: % Inhibition Point 2): 18%
- inhibition at 0.00457 µM (BMX [2]; read-out: % Inhibition Point 2): 42%
- inhibition at 0.0137 µM (BMX [2]; read-out: % Inhibition Point 2): 83%
- inhibition at 0.0412 µM (BMX [2]; read-out: % Inhibition Point 2): 101%
- inhibition at 0.123 µM (BMX [2]; read-out: % Inhibition Point 2): 97%
- inhibition at 0.37 µM (BMX [2]; read-out: % Inhibition Point 2): 98%
- inhibition at 1.11 µM (BMX [2]; read-out: % Inhibition Point 2): 102%
- inhibition at 3.33 µM (BMX [2]; read-out: % Inhibition Point 2): 100%
- inhibition at 10 µM (BMX [2]; read-out: % Inhibition Point 2): 102%
- inhibition at 1 µM (HCK): 19%
- HCK, BTK/Kinase (HCK; BTK selectivity from IC50 values): 180 x
- pIC50 (HCK; HCK IC50, Z′-Lyte, [ATP] Km app, 1 h incubation, duplicate): 5.64
- Hillslope (HCK; HCK IC50 curve): 1.00
- inhibition at 0.000495 µM (HCK; read-out: % Inhibition Point 1): 10%
- inhibition at 0.00152 µM (HCK; read-out: % Inhibition Point 1): 9%
- inhibition at 0.00457 µM (HCK; read-out: % Inhibition Point 1): 10%
- inhibition at 0.0137 µM (HCK; read-out: % Inhibition Point 1): 6%
- inhibition at 0.0412 µM (HCK; read-out: % Inhibition Point 1): 9%
- inhibition at 0.123 µM (HCK; read-out: % Inhibition Point 1): 10%
- inhibition at 0.37 µM (HCK; read-out: % Inhibition Point 1): 19%
- inhibition at 1.11 µM (HCK; read-out: % Inhibition Point 1): 32%
- inhibition at 3.33 µM (HCK; read-out: % Inhibition Point 1): 48%
- inhibition at 10 µM (HCK; read-out: % Inhibition Point 1): 62%
- inhibition at 0.000495 µM (HCK; read-out: % Inhibition Point 2): 7%
- inhibition at 0.00152 µM (HCK; read-out: % Inhibition Point 2): 7%
- inhibition at 0.00457 µM (HCK; read-out: % Inhibition Point 2): 5%
- inhibition at 0.0137 µM (HCK; read-out: % Inhibition Point 2): 10%
- inhibition at 0.0412 µM (HCK; read-out: % Inhibition Point 2): 8%
- inhibition at 0.123 µM (HCK; read-out: % Inhibition Point 2): 15%
- inhibition at 0.37 µM (HCK; read-out: % Inhibition Point 2): 15%
- inhibition at 1.11 µM (HCK; read-out: % Inhibition Point 2): 29%
- inhibition at 3.33 µM (HCK; read-out: % Inhibition Point 2): 49%
- inhibition at 10 µM (HCK; read-out: % Inhibition Point 2): 65%
- kinact/KI (BLK): 35000 M⁻¹ s⁻¹
- BLK kinact/Ki (BLK; listed as Dimethyl Analog): 35,500 M^-1S^-1
- kinact (BLK): 0.0021 s⁻¹
- kinact/KI (BMX [3]): 65000 M⁻¹ s⁻¹
- BMX kinact/Ki (BMX [3]; listed as Dimethyl Analog): 64,800 M^-1S^-1
- kinact (BMX [3]): 0.0053 s⁻¹

Compound: C=CC(=O)N1CCC[C@@H](n2nc(-c3ccc(Oc4ccccc4)cc3C)c3c(N)ncnc32)C1 [Compound 2, (R)-1-(3-(4-amino-3-(2-methyl-4-phenoxyphenyl)-1H-pyrazolo[3,4-d]pyrimidin-1-yl)piperidin-1-yl)prop-2-en-1-one]
- inhibition at 1 µM (ERBB2 (HER2)): 71%
- inhibition at 1 µM (KIT): 15%
- inhibition at 1 µM (PTK6 (Brk)): 97%
- inhibition at 1 µM (MAP2K5 (MEK5)): 32%
- inhibition at 1 µM (TEC): 100%
- kinact/KI (BLK): 320000 M⁻¹ s⁻¹
- BLK kinact/Ki (BLK; listed as Monomethyl Analog): 316,000 M^-1S^-1
- kinact (BLK): 0.0034 s⁻¹
- kinact/KI (BMX [3]): 81000 M⁻¹ s⁻¹
- BMX kinact/Ki (BMX [3]; listed as Monomethyl Analog): 80,800 M^-1S^-1
- kinact (BMX [3]): 0.0065 s⁻¹

Source: paper PMC10009787 (ACS Medicinal Chemistry Letters, 2023)
